The record followed here is patent USRE38132E1, “Phenylpyrrolidines, phenylimidazolidines,3-phenyl-1,3-oxizolidines and 3-phenyl-1,3-thiazolidines and their use in the treatment of inflammatory disease” (Boehringer Ingelheim Pharmaceuticals, Inc., priority 1997, dated 2003).

In series [1] the target is T1, interaction of ICAM-1 with the Leukointegrin CD18/CD11a (LFA-1) (Homo sapiens, UniProt P05107+P20701).
T1 construct: endogenous in cells; sICAM-1: made in house, secreted from transfected CHO DUX cells
The experiment in a line: Assay to determine inhibition of LFA-1 binding to ICAM-1 (immunopurified LFA-1 on plate-bound sICAM-1, ELISA readout).

Series [2] concerns LFA-1 dependent aggregation of JY cells. Kind of series: JY cell homotypic aggregation assay (PMA-stimulated). The class given is cell-based, human. The note with it: Homo sapiens. An outline of the steps: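 JY cells (2·10^5 cells/well) in RPMI 1640 with 10% FCS incubated with test compound and […]; cells settle spontaneously and aggregation is scored at various time points. Values are concentrations (μM) giving 50% inhibition of binding.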

Series [3] deals with cell bound form of LFA-1 (CD18, CD11a) with ICAM-1, SKW3 cells. The experiment in a line: Inhibition of SKW3 cell binding to ICAM-1 (PMA-stimulated). The note with it: read-out: Assay to Detect SKW3 Cells Binding to ICAM IC50. The class given is cell-based, human. An outline of the steps: (§1)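 Plates coated with sICAM-1 (40 μg/mL) or fibronectin (100 μg/mL) for 1 h; SKW3 cells in RPMI/15% FBS activated with PMA (50 μg/mL final) added with compound, 2 h at 37° C. Unbound cells washed off; value is concentration (μM) giving 50% binding inhibition.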

Series [4] concerns cell bound fibronectin receptor (VLA4) with fibronectin, SKW3 cells. Kind of series: Inhibition of SKW3 cell binding to fibronectin (selectivity counter-assay). The class given is cell-based, human. The note with it: for IC50: Homo sapiens, read-out: Assay to Detect SKW3 Cells Binding to FIBRONECTIN IC50. An outline of the steps:
as §1

Setting [5] is: values marked e approximated from incomplete dose-response curve.
Setting [6] is: Homo sapiens, SKW3, values marked c: no inhibition observed up to highest dose.
Where [7] appears, read: values marked c: no inhibition observed up to highest dose.
The mark [8] stands for this setting: SKW3, values marked c: no inhibition observed up to highest dose.
The mark [9] stands for this setting: No inh = no inhibition observed up to highest dose, exact quantification not always possible due to intrinsic toxicity.
Where [10] appears, read: SKW3, No inh = no inhibition observed up to highest dose, exact quantification not always possible due to intrinsic toxicity.

Like-named read-outs stand apart in the source and are kept apart here.

One may read the Kd as the constant that tells how readily two partners part at equilibrium. The low end stands for a tighter complex, the high end for a looser complex. One may read the IC50 as the concentration at which inhibition is half-maximal.

T1 sequence (P20701 26-1170): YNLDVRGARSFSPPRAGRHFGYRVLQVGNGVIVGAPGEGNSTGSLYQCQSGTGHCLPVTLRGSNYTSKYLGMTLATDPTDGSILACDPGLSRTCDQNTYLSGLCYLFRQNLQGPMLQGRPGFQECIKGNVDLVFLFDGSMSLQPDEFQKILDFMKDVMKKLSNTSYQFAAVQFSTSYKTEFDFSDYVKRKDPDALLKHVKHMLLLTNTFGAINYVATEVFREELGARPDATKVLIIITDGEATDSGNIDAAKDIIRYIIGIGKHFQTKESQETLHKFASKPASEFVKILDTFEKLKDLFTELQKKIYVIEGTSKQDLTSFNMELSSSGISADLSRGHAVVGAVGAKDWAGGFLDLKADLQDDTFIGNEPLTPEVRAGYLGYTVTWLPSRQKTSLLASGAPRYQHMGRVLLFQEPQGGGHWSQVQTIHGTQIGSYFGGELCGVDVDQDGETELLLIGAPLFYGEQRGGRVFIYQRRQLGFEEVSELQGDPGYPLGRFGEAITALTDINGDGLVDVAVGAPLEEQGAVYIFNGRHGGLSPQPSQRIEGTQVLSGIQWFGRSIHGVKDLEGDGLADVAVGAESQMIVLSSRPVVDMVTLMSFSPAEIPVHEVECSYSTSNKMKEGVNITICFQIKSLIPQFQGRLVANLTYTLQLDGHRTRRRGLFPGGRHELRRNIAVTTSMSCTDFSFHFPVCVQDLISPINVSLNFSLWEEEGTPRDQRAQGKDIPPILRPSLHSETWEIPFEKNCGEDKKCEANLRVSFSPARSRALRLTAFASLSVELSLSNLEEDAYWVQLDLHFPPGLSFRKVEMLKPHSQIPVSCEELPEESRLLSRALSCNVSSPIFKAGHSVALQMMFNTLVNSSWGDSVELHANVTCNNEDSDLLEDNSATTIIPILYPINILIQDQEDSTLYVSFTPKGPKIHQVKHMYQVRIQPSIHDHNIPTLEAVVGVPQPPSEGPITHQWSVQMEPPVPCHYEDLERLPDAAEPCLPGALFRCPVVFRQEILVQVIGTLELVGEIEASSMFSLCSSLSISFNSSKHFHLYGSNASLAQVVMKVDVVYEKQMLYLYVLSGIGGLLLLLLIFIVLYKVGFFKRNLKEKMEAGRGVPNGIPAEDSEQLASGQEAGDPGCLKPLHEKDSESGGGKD
T1 sequence (P05107 23-769): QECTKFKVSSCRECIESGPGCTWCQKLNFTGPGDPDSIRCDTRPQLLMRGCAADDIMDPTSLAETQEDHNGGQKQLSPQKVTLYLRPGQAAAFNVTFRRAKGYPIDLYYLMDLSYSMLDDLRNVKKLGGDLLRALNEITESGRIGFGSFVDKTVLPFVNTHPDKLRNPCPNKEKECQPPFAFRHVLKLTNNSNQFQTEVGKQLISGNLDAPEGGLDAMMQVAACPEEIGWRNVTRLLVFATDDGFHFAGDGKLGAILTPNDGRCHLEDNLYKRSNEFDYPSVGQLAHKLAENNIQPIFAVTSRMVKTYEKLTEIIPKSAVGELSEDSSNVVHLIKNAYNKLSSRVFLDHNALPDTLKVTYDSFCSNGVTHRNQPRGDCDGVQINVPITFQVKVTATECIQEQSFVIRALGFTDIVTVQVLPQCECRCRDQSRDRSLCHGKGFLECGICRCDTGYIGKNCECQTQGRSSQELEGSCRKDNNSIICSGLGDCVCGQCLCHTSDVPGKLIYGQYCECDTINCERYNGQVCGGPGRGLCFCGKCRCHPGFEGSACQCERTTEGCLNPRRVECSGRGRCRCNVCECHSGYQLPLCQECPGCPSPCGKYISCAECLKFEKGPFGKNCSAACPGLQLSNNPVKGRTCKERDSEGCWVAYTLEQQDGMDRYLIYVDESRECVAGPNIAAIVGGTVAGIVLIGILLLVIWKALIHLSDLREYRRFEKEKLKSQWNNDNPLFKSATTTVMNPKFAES

Molecule `CCCC1(Cc2ccc(Br)cc2)C(=O)N(c2cc(Cl)cc(Cl)c2)C(=O)N1C` (stereo not drawn) [Example 173] yielded a Kd in series [1] (setting [5]) of 170 nM. In addition, the “Cellular Toxicity Assay MTT LD50” value with SKW3 cells lay within 200 to 400 µM. Moreover, the IC50 was 2200 nM in series [2] and 4800 nM in series [3] (setting [6]). In series [4] (setting [7]), the “Assay to Detect SKW3 Cells Binding to FIBRONECTIN IC50” value (from here on “Assay to Detect SKW3 Cells Binding”) was “No inh^c”.

Regarding `C[C@]1(Cc2ccc(Br)cc2)NC(=O)N(c2cc(Cl)c(Cl)c(Cl)c2)C1=O` [Example 43], binding in series [1] (setting [5]) was characterised by a dissociation constant (Kd) of 170 nM. Besides, the “Cellular Toxicity Assay MTT LD50” value in the series with SKW3 cells lay in the range of 25 to 50 µM. Moreover, the IC50 in series [2] was 1800 nM; in series [3] (setting [6]), 3000 to 6000 nM. The “Assay to Detect SKW3 Cells Binding” value in series [4] (setting [7]) is “No inh^c”.

Regarding `CC1(Cc2c[nH]c3ccccc23)NC(=O)N(c2cc(Cl)cc(Cl)c2)C1=O` (stereo not drawn) [Example 23], the Kd in series [1] (setting [5]) was 770 nM. Further, the “Cellular Toxicity Assay MTT LD50” value in the series with SKW3 cells is 50 to 100 µM. The figures for the half-maximal inhibitory concentration (IC50) in series [2], in series [3] (setting [7]) and in series [4] (setting [8]) were 13000 nM, 25000 to 50000 nM and > 100000 nM, respectively.

Consider `C[C@]1(Cc2cc(Br)cc(Br)c2)NC(=O)N(c2cc(Cl)cc(Cl)c2)C1=O` [Example 40], for which the dissociation constant (Kd) in series [1] (setting [5]) was found to be 480 nM. Besides, in the series with SKW3 cells, the “Cellular Toxicity Assay MTT LD50” value lay in the range of 50 to 100 µM. Besides, the IC50 in series [2] was 25000 nM; in series [3] (setting [6]), 50000 to 100000 nM; in series [4] (setting [8]), 50000 to 100000 nM.

Take `C[C@@]1(Cc2ccc(Br)cc2)C(=O)N(c2cc(Cl)cc(Cl)c2)C(=O)N1C1CCN(CC(=O)O)CC1` [Example 237]: the affinity in series [1], expressed as Kd, was 130 nM. Further, the “Cellular Toxicity Assay MTT LD50” value in the series on SKW3 cells was in the range of 50 to 100 µM. Further, the half-inhibitory concentration (IC50) was 100 nM in series [2] and 1000 to 2000 nM in series [3] (Homo sapiens, SKW3). Also, the “Assay to Detect SKW3 Cells Binding” value in series [4] (setting [9]) is recorded as “No inh^c”.

For `CN1C(=O)N(c2cc(Cl)cc(Cl)c2)C(=O)[C@@]1(C)Cc1ccccc1` [Example 266], the dissociation constant Kd in series [1] came out at 140 nM. Further, the “Cellular Toxicity Assay MTT LD50” value with SKW3 cells is >500 µM. Moreover, the half-inhibitory concentration (IC50) was 3000 nM in series [2]; 25000 to 50000 nM in series [3] (Homo sapiens, SKW3); > 50000 nM in series [4] (setting [10]).

`C[C@]1(Cc2ccccc2)NC(=O)N(c2cc(Cl)cc(Cl)c2)C1=O` [Example 265] registered a Kd in series [1] of 280 nM. For the same molecule, the “Cellular Toxicity Assay MTT LD50” value in the series with SKW3 cells lay in the range of 130 to 250 µM. In addition, the concentration for half-maximal inhibition (IC50) in series [2] was 3000 nM; in series [3] (Homo sapiens, SKW3), 19000 to 38000 nM; in series [4] (setting [10]) it was > 75000 nM.

Consider `C[C@@]1(Cc2ccc(Br)cc2)C(=O)N(c2cc(Cl)cc(Cl)c2)C(=O)N1CCCP(=O)(O)O` [Example 223], for which, in series [1], the Kd was 150 nM. Also, the “Cellular Toxicity Assay MTT LD50” value in the series with SKW3 cells is 200 to 400 µM. Also, the 50% inhibitory concentration (IC50) was 200 nM in series [2] and 2000 to 4000 nM in series [3] (Homo sapiens, SKW3). In addition, in series [4] (setting [9]), the “Assay to Detect SKW3 Cells Binding” value was “No inh^c”.

With `COCN1C(=O)N(c2cc(Cl)cc(Cl)c2)C(=O)[C@@]1(C)Cc1ccc(Br)cc1` [Example 131], in series [1] (setting [5]), the affinity, expressed as Kd, was 200 nM. Moreover, in the series on SKW3 cells, the “Cellular Toxicity Assay MTT LD50” value is >400 µM. Besides, the IC50 in series [2] was 1100 nM; in series [3] (setting [6]), 3000 to 5000 nM. For the same molecule, the “Assay to Detect SKW3 Cells Binding” value in series [4] (setting [7]) is listed as “No inh^c”.

Regarding `CC(=O)N1C(=O)N(c2cc(Cl)cc(Cl)c2)C(=O)[C@@]1(C)Cc1ccc([N+](=O)[O-])cc1` [Example 135], the Kd in series [1] (setting [5]) is 200 nM. In addition, the “Cellular Toxicity Assay MTT LD50” value in the series with SKW3 cells is >400 µM. Moreover, the 50% inhibitory concentration (IC50) came out at 1700 nM in series [2] and 25000 nM in series [3] (setting [6]). Besides, the “Assay to Detect SKW3 Cells Binding” value in series [4] (setting [7]) is given as “No inh^c”.

Turning to `CN1C(=O)N(c2cc(Cl)cc(Cl)c2)C(=O)C1(C)Cc1ccc(Br)cc1O` (stereo not drawn) [Example 248], in series [1], the Kd was determined as 370 nM. In the series with SKW3 cells, the “Cellular Toxicity Assay MTT LD50” value is 50 to 100 µM. Also, the half-inhibitory concentration (IC50) in series [2] is 700 nM; in series [3] (Homo sapiens, SKW3), 9000 to 18000 nM. Also, the “Assay to Detect SKW3 Cells Binding” value in series [4] (setting [9]) is “No inh^c”.

`CN1C(=O)N(c2cc(Cl)cc(Cl)c2)C(=O)C1(C)Cc1ccc(Cl)cc1` (stereo not drawn) [Example 154] returned a Kd in series [1] (setting [5]) of 94 nM. Moreover, in the series on SKW3 cells, the “Cellular Toxicity Assay MTT LD50” value was determined as 200 µM. In addition, the 50% inhibitory concentration (IC50) is 400 nM in series [2] and 5000 to 10000 nM in series [3] (setting [6]). Moreover, the “Assay to Detect SKW3 Cells Binding” value in series [4] (setting [7]) was “No inh^c”.
